Earlier results as cited in patent publication US8329742B2, “Macrocyclic compounds useful as pharmaceuticals” (EISAI Co., Ltd., priority 2002, dated 2012).

How the values were obtained:
[1] = molecular target: Map/Erk kinase (MEK) (Homo sapiens, UniProt Q02750)
[2] = susceptible to enone isomerization in mouse and human plasma

Chain of Map/Erk kinase (MEK) (Q02750 whole entry): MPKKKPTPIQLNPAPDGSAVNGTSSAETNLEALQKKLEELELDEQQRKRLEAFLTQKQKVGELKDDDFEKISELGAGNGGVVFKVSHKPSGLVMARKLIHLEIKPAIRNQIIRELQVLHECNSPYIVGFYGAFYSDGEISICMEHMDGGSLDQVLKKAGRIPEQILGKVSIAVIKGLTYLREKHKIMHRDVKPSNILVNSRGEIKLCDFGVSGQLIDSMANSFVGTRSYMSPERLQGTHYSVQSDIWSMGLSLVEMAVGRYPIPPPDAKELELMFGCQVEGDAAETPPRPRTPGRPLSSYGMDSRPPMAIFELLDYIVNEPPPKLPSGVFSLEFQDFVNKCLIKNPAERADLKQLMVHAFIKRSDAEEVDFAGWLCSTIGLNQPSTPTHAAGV

In the case of `COc1cc(O)c2c(c1)/C=C/C[C@H](O)[C@H](O)C(=O)/C=C\C[C@H](C)OC2=O` [Compound F152], the “inhibition of Map/Erk kinase (MEK)” value [1] is listed as “inhibit” and the biological stability [2] is listed as “biologically unstable”.
